Measured values published in patent US20240254087A1, “SELECTIVE, PARTIAL, AND ARRESTIN-BIASED 5-HT2A AGONISTS WITH UTILITY IN VARIOUS DISORDERS” (Saint Joseph's University, priority 2021, published 2024).
Entries after “also recorded” stand apart in the source; their conditions may differ. Where two headings read alike, the source gives them in different places.

Key:
male C57BL/6J mice = test: Head-twitch response (HTR) in mice; format: in vivo, mouse; conditions: for ED50: Mus musculus
Experimental: Male C57BL/6J mice (6-8 weeks old) from Jackson Labs (Bar Harbor, ME, USA) were used for the behavioral experiments. The mice were housed on a reversed light-dark cycle (lights on at 1900 h, off at 0700 h) in an AAAC-approved vivarium at the University of California San Diego. Mice were housed up to four per cage in a climate-controlled room and with food and water provided ad libitum except during behavioral testing. Testing was performed between 1000 and 1800 h (during the dark phase of the light-dark cycle). The studies were conducted in accordance with National Institutes Health (NIH) guidelines and were approved by the University of California San Diego Institutional Animal Care and Use Committee.
The mice were allowed to recover from the magnet implantation surgeries for at least 1 week prior to behavioral testing. HTR experiments were conducted in a well-lit room, and the mice were allowed to habituate to the room for at least 1 h prior to testing. Head twitches was assessed in a 12-cm diameter glass cylinder surrounded by a magnetometer coil. Coil voltage was low-pass filtered (2 kHz), amplified, and digitized (20-kHz sampling rate) using a Powerlab/8SP with LabChart v 7.3.2 (ADInstruments, Colorado Springs, CO, USA). […] HTR counts were analyzed using one-way ANOVAs. Dunnett's test was used for post hoc comparisons.

5-HT2A [1] = molecular target: T1, 5-HT2A (Homo sapiens, UniProt P28223); test: cell-based; parameters: expressed in transfected cells; host or cells: HEK293T, transient; conditions: for Emax: read-out: 5-HT2A Gq Emax (% 5-HT), BRET, mean ± SEM
T1 sequence (P28223 whole entry): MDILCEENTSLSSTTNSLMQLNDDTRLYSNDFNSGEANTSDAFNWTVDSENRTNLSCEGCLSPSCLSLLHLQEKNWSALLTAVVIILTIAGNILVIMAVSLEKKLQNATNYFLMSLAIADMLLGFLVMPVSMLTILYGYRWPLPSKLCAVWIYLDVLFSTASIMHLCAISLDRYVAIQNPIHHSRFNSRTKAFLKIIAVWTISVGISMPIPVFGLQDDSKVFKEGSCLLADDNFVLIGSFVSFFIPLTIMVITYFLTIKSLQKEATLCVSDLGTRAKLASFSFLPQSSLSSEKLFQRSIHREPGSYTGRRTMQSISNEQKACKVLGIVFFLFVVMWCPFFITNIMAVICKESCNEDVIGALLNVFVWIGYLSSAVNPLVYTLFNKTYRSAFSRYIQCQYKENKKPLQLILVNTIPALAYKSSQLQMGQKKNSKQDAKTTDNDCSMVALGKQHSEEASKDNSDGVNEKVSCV
Experimental: (§1) After at least 18-24 hours, transfected cells were plated in poly-lysine coated 96-well white clear bottom cell culture plates in DMEM containing 1% dialyzed FBS at a density of 25-40,000 cells in 200 μL per well and incubated overnight. After approximately 20-24 hours, media was decanted and cells were washed with 60 μL of drug buffer (1×HBSS, 20 mM HEPES, pH 7.4), followed by 60 μL of drug buffer and pre-incubated in a humidified atmosphere at 37° C. before receiving drug stimulation. Drug stimulation was induced by adding 30 μL of a solution of drug (3X) diluted in McCorvy buffer (1×HBSS, 20 mM HEPES, pH 7.4, supplemented with 0.3% BSA fatty acid free, 0.03% ascorbic acid) and plates were incubated at the indicated time and temperature. Fifteen minutes before reading, 10 μL of the RLuc substrate, either coelenterazine h for β-Arrestin recruitment BRET^1 or coelenterazine 400a for Gq dissociation BRET^2 (Prolume/Nanolight, 5 μM final concentration) was addedper well. […] The BRET ratios of fluorescence/luminescence were calculated per well and were plotted as a function of drug concentration using Graphpad Prism 8 (Graphpad Software Inc., San Diego, CA).

5-HT2A [2] = molecular target: T1, 5-HT2A; test: cell-based; parameters: expressed in transfected cells; host or cells: HEK293T, transient; conditions: for EC50: BRET, mean ± SEM, read-out: 5-HT2A β-arrestin recruitment pEC50 (converted); for Emax: read-out: 5-HT2A β-arrestin Emax (% 5-HT), BRET, mean ± SEM
Experimental: as §1

5-HT2B = 5-HT2B (Homo sapiens, UniProt P41595); test: BRET Gq dissociation, 5-HT2B; format: cell-based; parameters: expressed in transfected cells; host or cells: HEK293T, transient; conditions: for Emax: read-out: 5-HT2B Gq Dissociation (BRET) EMAX ± SEM (%5-HT)
Sequence of 5-HT2B (P41595 whole entry): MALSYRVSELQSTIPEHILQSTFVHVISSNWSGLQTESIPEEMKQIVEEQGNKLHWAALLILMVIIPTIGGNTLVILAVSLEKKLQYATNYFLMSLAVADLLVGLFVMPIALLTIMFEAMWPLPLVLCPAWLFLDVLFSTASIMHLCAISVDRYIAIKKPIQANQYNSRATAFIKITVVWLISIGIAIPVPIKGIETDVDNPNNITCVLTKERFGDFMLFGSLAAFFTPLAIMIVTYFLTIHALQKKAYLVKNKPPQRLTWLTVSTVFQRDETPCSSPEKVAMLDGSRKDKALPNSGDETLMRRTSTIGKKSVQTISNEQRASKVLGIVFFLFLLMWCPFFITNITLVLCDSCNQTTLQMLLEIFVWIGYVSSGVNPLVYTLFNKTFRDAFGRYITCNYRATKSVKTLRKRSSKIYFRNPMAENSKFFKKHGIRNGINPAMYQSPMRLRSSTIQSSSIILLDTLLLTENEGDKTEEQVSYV
Experimental: After at least 18-24 hours, transfected cells were plated in poly-lysine coated 96-well white clear bottom cell culture plates in DMEM containing 1% dialyzed FBS at a density of 25-40,000 cells in 200 μL per well and incubated overnight. After approximately 20-24 hours, media was decanted and cells were washed with 60 μL of drug buffer (1×HBSS, 20 mM HEPES, pH 7.4), followed by 60 μL of drug buffer and pre-incubated in a humidified atmosphere at 37° C. before receiving drug stimulation. Drug stimulation was induced by adding 30 μL of a solution of drug (3X) diluted in McCorvy buffer (1×HBSS, 20 mM HEPES, pH 7.4, supplemented with 0.3% BSA fatty acid free, 0.03% ascorbic acid) and plates were incubated at the indicated time and temperature. Fifteen minutes before reading, 10 μL of the RLuc substrate, either coelenterazine h for β-Arrestin recruitment BRET^1 or coelenterazine 400a for Gq dissociation BRET^2 (Prolume/Nanolight, 5 μM final concentration) was addedper well. Plates were read for luminescence at 485 nm and fluorescent eYFP emission at 530 nm for BRET^1 and at 400 nm and fluorescent GFP2 emission at 510 nm for BRET2 at 1 second per well using a Mithras LB940 (Berthold). The BRET ratios of fluorescence/luminescence were calculated per well and were plotted as a function of drug concentration using Graphpad Prism 8 (Graphpad Software Inc., San Diego, CA).

5-HT2C = molecular target: T2, 5-HT2C (Homo sapiens, UniProt P28335); test: BRET Gq dissociation, 5-HT2C; format: cell-based; parameters: expressed in transfected cells; host or cells: HEK293T, transient; conditions: for Emax: read-out: 5-HT2C Gq Dissociation (BRET) EMAX ± SEM (%5-HT)
T2 sequence (P28335 33-458): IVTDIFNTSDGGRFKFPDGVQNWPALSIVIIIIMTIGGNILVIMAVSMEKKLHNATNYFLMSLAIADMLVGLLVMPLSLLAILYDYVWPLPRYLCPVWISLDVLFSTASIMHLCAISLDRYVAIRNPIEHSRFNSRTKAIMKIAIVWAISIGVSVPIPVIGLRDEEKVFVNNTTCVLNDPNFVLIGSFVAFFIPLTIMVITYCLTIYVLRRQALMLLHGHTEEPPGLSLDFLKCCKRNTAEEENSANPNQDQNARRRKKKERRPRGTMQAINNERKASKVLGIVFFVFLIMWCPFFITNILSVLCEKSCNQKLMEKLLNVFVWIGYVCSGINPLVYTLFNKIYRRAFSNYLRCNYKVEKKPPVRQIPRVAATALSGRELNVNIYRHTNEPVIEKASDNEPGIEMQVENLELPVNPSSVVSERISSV
Experimental: as §1

[3] = read-out: HTR ED50 mg/kg (95% CI), SC, except DOI and 25D-NBOMe IP
[4] = BRET, mean ± SEM, read-out: 5-HT2A Gq dissociation pEC50 (converted)
[5] = read-out: 5-HT2B Gq Dissociation (BRET) pEC50 ± SEM (converted)
[6] = read-out: 5-HT2C Gq Dissociation (BRET) pEC50 ± SEM (converted)

SMILES	Induction of the HTR in mice (in words) (male C57BL/6J mice)	Max HTR response during a 30-min assessment (maximum counts ÷ baseline response) (male C57BL/6J mice)	ED50 (male C57BL/6J mice; [3])	EC50 (5-HT2A [1]; [4])	Emax (5-HT2A [1])	EC50 (5-HT2A [2])	Emax (5-HT2A [2])	5-HT2B Gq Dissociation (BRET) EMAX ± SEM (%5-HT) (5-HT2B)	5-HT2B Gq Dissociation (BRET) pEC50 ± SEM (5-HT2B)	Emax (5-HT2B)	Emax (5-HT2C)	EC50 (5-HT2C; [6])	further results
COc1cc(OC)c(OC)cc1CCNCc1ccccc1-c1cccs1 [(59), N-(2-(thiophen-2-yl)benzyl)-2-(2,4,5-trimethoxyphenyl)-ethan-1-amine]	lacked a HTR	1.6-fold increase	> 30 mg/kg	24 nM	34.9 ± 1.6%	8.51 nM	100 ± 3.5%	No activity	No Activity				5-HT2C Gq Dissociation (BRET) EMAX ± SEM (%5-HT) (5-HT2C): No Activity; 5-HT2C Gq Dissociation (BRET) pEC50 ± SEM (5-HT2C): No Activity
COc1cc(OC)c(OC)cc1CCNCc1cccc(I)c1 [(53), N-(3-iodobenzyl)-2-(2,4,5-trimethoxyphenyl)-ethan-1-amine]	failed to induce the HTR	1.1-fold increase	> 30 mg/kg		50.1 ± 1.9%		82.7 ± 5.4%			20.3 ± 2.8%	91.5 ± 3.2%		EC50 (5-HT2B): 0.724 nM; EC50 (5-HT2C): 15.1 nM
COc1cc(CCNCc2ccccc2OC)c(OC)cc1I [Compound 25I-NBOMe, reference compound]		16.0-fold increase	0.078 mg/kg	0.355 nM		0.525 nM	137 ± 3.7%			78.6 ± 2.6%	124 ± 3.1%	0.0977 nM	ED50 (male C57BL/6J mice; read-out: HTR ED50 μmol/kg (95% CI), SC, except DOI and 25D-NBOMe IP): 0.17 µmol/kg; 5-HT2A Gq Emax (% 5-HT) (5-HT2A [1]; BRET, mean ± SEM): 99.8 ± 1.2 % 5-HT; EC50 (5-HT2B; [5]): 3.39 nM
COc1cc(OC)c(OC)cc1CCNCc1cccc2ccccc12 [(38)]	failed to induce a HTR	1.0-fold increase	> 30 mg/kg	5.5 nM	24.3 ± 1.2%	1.62 nM	74.9 ± 1.9%	No activity	No activity		64.4 ± 2%	12.6 nM	
COc1cc(OC)c(OC)cc1CCNCc1ccccc1-c1ccc(O)cc1 [(64)]		2.1-fold increase	> 30 mg/kg		43.6 ± 2.5%	11.7 nM	80.5 ± 5.5%			29.2 ± 10.6%	80.6 ± 9.8%	1700 nM	EC50 (5-HT2A [1]): 617 nM; EC50 (5-HT2B; [5]): 3020 nM
COc1cc(OC)c(OC)cc1CCNCc1ccccc1OCc1ccccc1 [(61)]	lacked a HTR; also recorded: do not induce the HTR	1.4-fold increase	> 30 mg/kg		< 10%	3.31 nM	72.9 ± 4.2%	No activity	No activity				5-HT2A Gq dissociation pEC50 (5-HT2A [1]; BRET, mean ± SEM): No activity; 5-HT2C Gq Dissociation (BRET) EMAX ± SEM (%5-HT) (5-HT2C): No Activity; 5-HT2C Gq Dissociation (BRET) pEC50 ± SEM (5-HT2C): No Activity
COc1cc2c(cc1CCNCc1cccc3ccccc13)OCO2 [(39), [2-(6-methoxy-2H-1,3-benzodioxol-5-yl)ethyl][(naphthalen-1-yl)methyl]amine]	failed to induce a HTR	1.4-fold increase	> 30 mg/kg	15.5 nM	26.4 ± 2%	5.89 nM	80.1 ± 2.5%	No activity	No activity		90.5 ± 2.3%	17 nM	
